In PMC5317004 (Scientific Reports, 2017):

Tested on: chimeric α7-GluClβR
Assay: Voltage ramps during current decline: reversal potential, chloride chord conductance, IVM rate constants
Assay type: cell-based, chick nAChR α7 / C. elegans GluClβ
Description: Figure 6 Chloride conductance of α7-GluClβRs. Representative whole-cell current traces elicited by: (A) ACh alone and (B) ACh to which IVM was added after the current peak. Recordings were performed at −60 mV with intervening 200-ms-long voltage ramps applied from −80 to +20 mV during the current decline, giving output currents r1–r13. *, time lapse of ~1 sec between protocols’ exchange (see “Supplementary Materials and Methods”). Traces in A and B were recorded from the same cell, with an intermediate 74-sec-long wash. Right panels show superimposition of the output currents. (C,D) Current-voltage (I/V) relations extracted from A and B, respectively (r13 in D overlaps the x-axis). (E) Reversal potentials (Erev) extracted from the voltage-ramps’ output currents of A (black squares) and B (red circles), plotted as a function of time (0 sec, time of r1). (F) Decay of chloride chord conductance plotted as a function of time, in the absence or presence of IVM. The conductance points were calculated at −65 mV based on the voltage-ramps’ output currents shown in A and B. Exponential fits (Eq. 6) are shown. (G,H) Normalized (Norm.) conductance (G), current (I), intracellular Cl^− ion concentration ([Cl]i), and electrochemical driving force (VDF) plotted as a function of time for ACh-dependent responses in the absence (panel G) or presence (panel H) of IVM (relating to responses in A and B, respectively). (I,J) Decay of chloride chord conductance plotted as a function of time in representative cells exposed to different IVM concentrations. (K,L,M) Averaged normalized chloride chord conductance (Norm. G) plotted as a function of time under different IVM concentrations. In each cell, each conductance was normalized to the conductance extracted from r1 of the ACh-alone application. N = 7, 11 and 8 in K, L and M, respectively. Error bars are SEM. (N) 1/τIVM plotted as a function of IVM concentration, using equation 7 for curve fitting by linear regression (r^2 = 0.999). 26 cells were analyzed to obtain the averaged 1/τIVM points. Error bars are SEM.
We then took advantage of the capability of IVM to accelerate the current decline in order to determine the binding affinity of IVM. To this end, the voltage ramps’ output currents obtained in the presence of IVM were subtracted from their counterpart currents obtained in the absence of IVM. Then, we calculated the chloride conductance based on the resulting subtracted currents at each ramp. This chloride conductance is hereafter termed GIVM. In each experimented cell, we fitted exponential curves to the first 5-6 conductance points, where there was no substantial difference between the ∆Erev values in the absence or presence of IVM. These exponential fits for the GIVM points were obtained at various IVM concentrations, and they actually provide the time constant of the IVM-dependent Cl^−-conductance decay (τIVM).
Chord conductance (G) was calculated by using equation 5 as follows: […]
The relationship between the conductance values and time was plotted for each cell, and the time constant of conductance decay was determined by fitting an exponential curve to the data points using equation 6 as follows: […]
To calculate the IVM association (kf) and dissociation (kb) rate constants, a curve was fitted to the 1/τIVM values by a linear regression using equation 7 as follows: where τIVM is the time constant of the IVM-dependent Cl^−-conductance decay, and [IVM] is the concentration of IVM. […]

CC[C@H](C)[C@H]1O[C@]2(CC[C@@H]1C)C[C@@H]1C[C@@H](C/C=C(\C)[C@@H](O[C@H]3C[C@H](OC)[C@@H](O[C@H]4C[C@H](OC)[C@@H](O)[C@H](C)O4)[C@H](C)O3)[C@@H](C)/C=C/C=C3\CO[C@@H]4[C@H](O)C(C)=C[C@@H](C(=O)O1)[C@]34O)O2 [IVM, Ivermectin]
IVM-dependent decrease in the chloride conductance (0.5 μM IVM, 740 milliseconds after application, 30 μM ACh): 20 ± 2%
leftward shift in reversal potential (∆Erev) (30 μM ACh plus 4 μM IVM added after the peak, representative cell): 11 mV
Kd (IVM applied after activation by ACh, read-out: Kd (kb/kf) for IVM binding to activated receptor): 1.4 µM
Kd (after activation) relative to IC50/Ki (prior to activation) (Kd […] vs 156 nM): nine times higher
IVM association rate constant (k forward, kf) (slope of 1/τIVM vs IVM concentration, 30 μM ACh, 26 cells): 290800 M^−1⋅s^−1
